Tested on: 171881-019-R-J1-PDC multicell spheroid viability
Test: Anticancer human tumor 171881-019-R-J1-PDC patient-derived invasive breast carcinoma cell line growth inhibition [IpAb]
Conditions: for IC50: curve of first compound; for viability, T/C: stronger effect = lower value
Excerpt: Combinatorial screen of targeted agents with ipatasertib and abemaciclib in multi-cell type tumor spheroids
A high-throughput screen of multi-cell type tumor spheroids was designed to identify active combinations of targeted small molecules and ipatasertib or abemaciclib. Complex spheroids include a stromal component modeled by human endothelial cells (HUVEC) and fibroblasts modeled by human mesenchymal stem cells (MSCs). The concentration ranges selected for each drug and investigational agent were based upon clinically achievable concentrations if the clinical Cmax of the agent was known.
Compounds. The drugs and investigational agents: ipatasertib (NSC767898), abemaciclib(NSC768073), selumetinib (NSC741078), trametinib (758246), adavosertib (NSC754352), everolimus (NSC733504), sapanisertib (NSC764658), vemurafenib (NSC761431), venetoclax (NSC766270), copanlisib (NSC809693), apelisib (NSC765974), palbociblib (NSC758247), vemurafenib (NSC761431), dabrafenib (NSC764134), ravoxertinib (NSC781343), BMS-387032 (NSC767048), sotorasib (NSC818433), talazoparib (NSC767125) and afursertib (NSC778305), were obtained from the National Cancer Institute (NCI) Developmental Therapeutics Program Chemical Repository. The FDA-approved anticancer drug set is available from the NCI Developmental Therapeutics Program. […] The stock solutions were prepared in dimethyl sulfoxide (DMSO, Sigma-Aldrich, St. Louis, MO, cat. D2650) at 800-fold the tested concentration and stored at -70 degrees C prior to their use. All drugs and investigational agents were tested over a range starting from a high concentration at or near the clinical Cmax and decreasing in half-log increments. If the clinical Cmax for an agent had not been determined, the highest concentration tested was 10 microM.
NCI60 Cell Culture. NCI60 cell lines were obtained from the NCI Developmental Therapeutics Program Tumor Repository. For each lot of cells, the Repository performed Applied Biosystems AmpFLSTR Identifiler testing with PCR amplification to confirm consistency with the published Identifier STR profile for each cell line. Cells were kept in continuous culture for no more than 20 passages. The optimal seeding densities for each of the cell lines at each time point assessed were determined prior to performing the concentration response studies. Briefly, the NCI60 human tumor lines were grown as monolayers in RPMI 1640 medium supplemented with 10% FBS and 2 mmol/L L-glutamine.
An additional 9 lines were from the NCI60 cell line panel including MDA-MB-231 breast carcinoma, MDA-MB-468 breast carcinoma, MCF7 breast carcinoma, Hs578T breast carcinoma, MALME-3M melanoma, SK-MEL-2 melanoma, SK-OV-3 ovarian carcinoma, DU-145 prostate carcinoma, PC-3 prostate carcinoma, all cell lines along with major genetic alterations are listed on Table 2. Pooled donor human umbilical vein endothelial cells (HUVEC, Lonza, cat. CC-2519) and human mesenchymal stem cells (hMSC, Lonza, cat. PT-2501) were purchased from Lonza (Walkersville, MD).
PDMR cell lines were grown in complete medium (DC medium): Dulbecco's modified Eagle's medium (DMEM)/F12 supplemented with 5% fetal bovine serum (FBS), 2 mM L-glutamine, 100 U/mL penicillin and 100 µg/ml streptomycin, 0.4 µg/ml hydrocortisone, 10 ng/ml epidermal growth factor (EGF) recombinant human protein, 24 µg/mL adenine, and 0.1 mg/mL primocin. During culture from frozen stock vials, PDMR cells were cultured in the same medium containing 10 µM Y-27632 (see Table 3). The PDCs were cultured in complete DMEM/F12 media without 10 microM Y-27632 dihydrochloride for at least two passages prior to the screen. The pooled donor HUVEC and hMSC were cultured in endothelial cell growth medium 2 (PromoCell, Heidelberg, Germany, cat. C-22011) and mesenchymal stem cell growth medium 2 (PromoCell, cat. C-28009), respectively. For all experiments, HUVEC and hMSC were used at passages </=5.
[…]

[1] = second compound 0.1 µM, first compound 0.0316 µM
[2] = second compound 0.1 µM, first compound 0.1 µM
[3] = second compound 0.1 µM, first compound 0.316 µM
[4] = second compound 0.1 µM, first compound 1 µM
[5] = second compound 0.1 µM, first compound 3.16 µM
[6] = second compound 0.1 µM, first compound 10 µM
[7] = second compound 0.316 µM, first compound 0.0316 µM
[8] = second compound 0.316 µM, first compound 0.1 µM
[9] = second compound 0.316 µM, first compound 0.316 µM
[10] = second compound 0.316 µM, first compound 1 µM
[11] = second compound 0.316 µM, first compound 3.16 µM
[12] = second compound 0.316 µM, first compound 10 µM
[13] = second compound 1 µM, first compound 0.0316 µM
[14] = second compound 1 µM, first compound 0.1 µM
[15] = second compound 1 µM, first compound 0.316 µM
[16] = second compound 1 µM, first compound 1 µM
[17] = second compound 1 µM, first compound 3.16 µM
[18] = second compound 1 µM, first compound 10 µM
[19] = second compound 3.16 µM, first compound 0.0316 µM
[20] = second compound 3.16 µM, first compound 0.1 µM
[21] = second compound 3.16 µM, first compound 0.316 µM
[22] = second compound 3.16 µM, first compound 1 µM
[23] = second compound 3.16 µM, first compound 3.16 µM
[24] = second compound 3.16 µM, first compound 10 µM
[25] = second compound 10 µM, first compound 0.0316 µM
[26] = second compound 10 µM, first compound 0.1 µM
[27] = second compound 10 µM, first compound 0.316 µM
[28] = second compound 10 µM, first compound 1 µM
[29] = second compound 10 µM, first compound 3.16 µM
[30] = second compound 10 µM, first compound 10 µM
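Further: spheroids exposed to the agents for seven days before readout.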

| SMILES | IC50 (second compound 0.1 µM) | IC50 (second compound 0.316 µM) | IC50 (second compound 1 µM) | IC50 (second compound 3.16 µM) | IC50 (second compound 10 µM) | viability, T/C [1] | viability, T/C [2] | viability, T/C [3] | viability, T/C [4] | viability, T/C [5] | viability, T/C [6] | viability, T/C [7] | viability, T/C [8] | viability, T/C [9] | viability, T/C [13] | viability, T/C [14] | viability, T/C [19] | viability, T/C [20] | viability, T/C [25] | viability, T/C [26] | further results |
| --- | --- | --- | --- | --- | --- | --- | --- | --- | --- | --- | --- | --- | --- | --- | --- | --- | --- | --- | --- | --- | --- |
| C=CCn1c(=O)c2cnc(Nc3ccc(N4CCN(C)CC4)cc3)nc2n1-c1cccc(C(C)(C)O)n1 + CC(C)NCC(C(=O)N1CCN(c2ncnc3c2C(C)CC3O)CC1)c1ccc(Cl)cc1 | 727 nM | 354 nM | < 31.6 nM | < 31.6 nM | < 31.6 nM | 116% | 118% | 114% | 25.6% | 22.1% | 20.3% | 87.3% | 80.3% | 54% | 26.4% | 23.8% | 9.36% | 8.13% | 5.29% | 4.04% | viability, T/C [10]: 17.4%; viability, T/C [11]: 15.6%; viability, T/C [12]: 16.4%; viability, T/C [15]: 16.5%; viability, T/C [16]: 9.22%; viability, T/C [17]: 10.4%; viability, T/C [18]: 10.4%; viability, T/C [21]: 6.23%; viability, T/C [22]: 5.35%; viability, T/C [23]: 7.31%; viability, T/C [24]: 8.03%; viability, T/C [27]: 3.45%; viability, T/C [28]: 4.09%; viability, T/C [29]: 4.97%; viability, T/C [30]: 4.41% |
| CC(C)n1nc(-c2ccc3oc(N)nc3c2)c2c(N)ncnc21 + CC(C)NCC(C(=O)N1CCN(c2ncnc3c2C(C)CC3O)CC1)c1ccc(Cl)cc1 | 3.65 nM | 0.877 nM | < 0.316 nM | < 0.316 nM | < 0.316 nM | 2.88% | 2% | – | – | – | – | 1.96% | 1.7% | – | 1.26% | 1.29% | 1.09% | 0.93% | 0.84% | 1% | viability, T/C (second compound 0.1 µM, first compound 0.000316 µM): 116%; viability, T/C (second compound 0.1 µM, first compound 0.001 µM): 101%; viability, T/C (second compound 0.1 µM, first compound 0.00316 µM): 56.6%; viability, T/C (second compound 0.1 µM, first compound 0.01 µM): 11.2%; viability, T/C (second compound 0.316 µM, first compound 0.000316 µM): 69.3%; viability, T/C (second compound 0.316 µM, first compound 0.001 µM): 47.4%; viability, T/C (second compound 0.316 µM, first compound 0.00316 µM): 16.7%; viability, T/C (second compound 0.316 µM, first compound 0.01 µM): 3.76%; viability, T/C (second compound 1 µM, first compound 0.000316 µM): 20%; viability, T/C (second compound 1 µM, first compound 0.001 µM): 9.02%; viability, T/C (second compound 1 µM, first compound 0.00316 µM): 5.13%; viability, T/C (second compound 1 µM, first compound 0.01 µM): 2.23%; viability, T/C (second compound 3.16 µM, first compound 0.000316 µM): 8.5%; viability, T/C (second compound 3.16 µM, first compound 0.001 µM): 4.98%; viability, T/C (second compound 3.16 µM, first compound 0.00316 µM): 2.85%; viability, T/C (second compound 3.16 µM, first compound 0.01 µM): 1.62%; viability, T/C (second compound 10 µM, first compound 0.000316 µM): 5.26%; viability, T/C (second compound 10 µM, first compound 0.001 µM): 3.35%; viability, T/C (second compound 10 µM, first compound 0.00316 µM): 2.04%; viability, T/C (second compound 10 µM, first compound 0.01 µM): 1.47% |
| CCCS(=O)(=O)Nc1ccc(F)c(C(=O)c2c[nH]c3ncc(-c4ccc(Cl)cc4)cc23)c1F + CC(C)NCC(C(=O)N1CCN(c2ncnc3c2C(C)CC3O)CC1)c1ccc(Cl)cc1 | > 10000 nM | > 10000 nM | < 31.6 nM | < 31.6 nM | < 31.6 nM | 112% | 128% | 110% | 111% | 112% | 90.8% | 90.3% | 91.5% | 92.5% | 36.9% | 39.9% | 12.8% | 13.4% | 7.7% | 7.32% | viability, T/C [10]: 97.8%; viability, T/C [11]: 110%; viability, T/C [12]: 100%; viability, T/C [15]: 38.9%; viability, T/C [16]: 41.4%; viability, T/C [17]: 47.2%; viability, T/C [18]: 53.7%; viability, T/C [21]: 14.2%; viability, T/C [22]: 14.5%; viability, T/C [23]: 21%; viability, T/C [24]: 24.1%; viability, T/C [27]: 8.04%; viability, T/C [28]: 8.61%; viability, T/C [29]: 10.4%; viability, T/C [30]: 11% |

— PubChem BioAssay AID2060342 (Molecular Pharmacology Branch, DTP, NCI, 2025)
